According to patent US11434242B2, “Dopamine-b-hydroxylase inhibitors” (BIAL-PORTELA & Cª, S.A., priority 2017, dated 2022):
Where a name gives a salt, the structure may show the parent alone.

Target: T1, Dopamine beta hydroxylase (Homo sapiens, UniProt P09172)
T1 construct: 125 μl of plasma; tissue Instituto Português do Sangue Transplantação; host or cells: human plasma from healthy donors
T1 sequence (P09172 40-617 limits assumed): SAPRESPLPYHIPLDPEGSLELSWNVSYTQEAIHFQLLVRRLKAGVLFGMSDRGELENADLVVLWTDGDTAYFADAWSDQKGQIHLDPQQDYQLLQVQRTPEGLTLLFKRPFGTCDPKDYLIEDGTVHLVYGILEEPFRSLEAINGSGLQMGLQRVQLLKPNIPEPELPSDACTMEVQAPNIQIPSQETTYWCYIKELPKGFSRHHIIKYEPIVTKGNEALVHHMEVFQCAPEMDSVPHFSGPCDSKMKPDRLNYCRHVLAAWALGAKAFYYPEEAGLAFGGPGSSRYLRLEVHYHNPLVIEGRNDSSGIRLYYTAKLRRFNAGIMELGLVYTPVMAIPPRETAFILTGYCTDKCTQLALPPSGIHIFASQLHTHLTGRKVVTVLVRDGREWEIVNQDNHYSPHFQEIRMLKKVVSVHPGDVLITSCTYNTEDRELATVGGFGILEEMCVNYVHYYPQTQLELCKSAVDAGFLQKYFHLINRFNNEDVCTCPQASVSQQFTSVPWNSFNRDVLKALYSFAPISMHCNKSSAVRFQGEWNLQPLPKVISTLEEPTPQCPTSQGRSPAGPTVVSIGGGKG
Assay: Dopamine beta hydroxylase activity in human plasma
Format: biochemical
Settings: for Plasma (0.1 μM), activity in % of control: inhibitor 0.1 μM; for Plasma (1 μM), activity in % of control: inhibitor 1 μM; for Plasma (0.01 μM), activity in % of control: inhibitor 0.01 μM
In short: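 Octopamine production from tyramine over 45 min at 37° C, measured photometrically at 330 nm after SCX extraction and periodate oxidation against an octopamine standard curve, indicates plasma DβH activity. Compounds tested at final 10, 100 and 1000 nM in human plasma, pH 5.0 cofactor buffer, 10 min preincubation; results as % of control.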

CCCCN(C)C(=O)Cc1[nH]c(=S)n2c1C[C@@H](c1c(F)ccc(Br)c1F)C2 [Example 92, (S)-2-(6-(3-bromo-2,6-difluorophenyl)-3-thioxo-2,5,6,7-tetrahydro-3H-pyrrolo[1,2-c]imidazol-1-yl)-N-butyl-N-methylacetamide] was tested, and the “Plasma (0.1 μM), activity in % of control” value was 37.5 % of control and the “Plasma (1 μM), activity in % of control” value was 0.1 % of control.

With CN1CCN(C(=O)Cc2[nH]c(=S)n3c2C[C@H](c2c(F)c(F)cc(F)c2F)C3)CC1 [Example 81, (R)-1-(4-methylpiperazin-1-yl)-2-(6-(2,3,5,6-tetrafluorophenyl)-3-thioxo-2,5,6,7-tetrahydro-3H-pyrrolo[1,2-c]imidazol-1-yl)ethan-1-one] the “Plasma (0.1 μM), activity in % of control” value was 63.1 % of control and the “Plasma (1 μM), activity in % of control” value was 15.9 % of control.

O=C(O)Cc1[nH]c(=S)n2c1C[C@@H](c1cc(Br)ccc1F)C2 [Example 16, (S)-2-(6-(5-bromo-2-fluorophenyl)-3-thioxo-2,5,6,7-tetrahydro-3H-pyrrolo[1,2-c]imidazol-1-yl)acetic Acid] was tested, and the “Plasma (0.1 μM), activity in % of control” value was 72.9 % of control and the “Plasma (1 μM), activity in % of control” value was 12.7 % of control.

Cn1c(CC(=O)NC2CCCC2C#N)c2n(c1=S)C[C@@H](c1c(F)ccc(F)c1F)C2 (stereo partly drawn) [Example 345, N-(2-cyanocyclopentyl)-2-((R)-2-methyl-3-thioxo-6-(2,3,6-trifluorophenyl)-2,5,6,7-tetrahydro-3H-pyrrolo[1,2-c]imidazol-1-yl)acetamide] was tested, and the “Plasma (0.01 μM), activity in % of control” value was 77.2 % of control and the “Plasma (0.1 μM), activity in % of control” value was 40.3 % of control.

Cl.O=C(Cc1[nH]c(=S)n2c1C[C@@H](c1c(F)ccc(Cl)c1F)C2)NCCc1ccccn1 [Example 106, (S)-2-(6-(3-chloro-2,6-difluorophenyl)-3-thioxo-2,5,6,7-tetrahydro-3H-pyrrolo[1,2-c]imidazol-1-yl)-N-(2-(pyridin-2-yl)ethyl)acetamide hydrochloride] was tested, and the “Plasma (0.1 μM), activity in % of control” value was 33.9 % of control and the “Plasma (1 μM), activity in % of control” value was 4.1 % of control.

In the case of CN(C(=O)Cc1c2n(c(=S)n1C)C[C@@]1(c3cc(Br)ccc3F)C[C@@H]21)C1CCOC1 (stereo partly drawn) [Example 440, 2-((5aS,6aR)-5a-(5-bromo-2-fluorophenyl)-2-methyl-3-thioxo-2,3,5,5a,6,6a-hexahydrocyclopropa[3,4]pyrrolo[1,2-c]imidazol-1-yl)-N-methyl-N-(tetrahydrofuran-3-yl)acetamide], the “Plasma (0.01 μM), activity in % of control” value is reported as 57.2 % of control and the “Plasma (0.1 μM), activity in % of control” value is reported as 8.4 % of control.

In the case of Cn1c(C2(C(=O)N[C@@H]3CCOC3)CC2)c2n(c1=S)C[C@H](c1c(F)ccc(Br)c1F)C2 [Example 234, 1-((S)-6-(3-bromo-2,6-difluorophenyl)-2-methyl-3-thioxo-2,5,6,7-tetrahydro-3H-pyrrolo[1,2-c]imidazol-1-yl)-N—((R)-tetrahydrofuran-3-yl)cyclopropane-1-carboxamide], the “Plasma (0.01 μM), activity in % of control” value is reported as 43.4 % of control and the “Plasma (0.1 μM), activity in % of control” value is reported as 12.2 % of control.

In the case of Cn1c(CC(=O)N[C@@H]2CCNC2=O)c2n(c1=S)C[C@H](c1c(F)ccc(Br)c1F)C2 [Example 342, 2-((S)-6-(3-bromo-2,6-difluorophenyl)-2-methyl-3-thioxo-2,5,6,7-tetrahydro-3H-pyrrolo[1,2-c]imidazol-1-yl)-N—((R)-2-oxopyrrolidin-3-yl)acetamide], the “Plasma (0.01 μM), activity in % of control” value is reported as 66.6 % of control and the “Plasma (0.1 μM), activity in % of control” value is reported as 16.5 % of control.

For O=C(Cc1[nH]c(=S)n2c1C[C@H](c1c(F)c(F)cc(F)c1F)C2)NC1CCC1 [Example 80, (R)—N-cyclobutyl-2-(6-(2,3,5,6-tetrafluorophenyl)-3-thioxo-2,5,6,7-tetrahydro-3H-pyrrolo[1,2-c]imidazol-1-yl)acetamide], the “Plasma (0.1 μM), activity in % of control” value was 60.7 % of control and the “Plasma (1 μM), activity in % of control” value was 9.8 % of control.

For Fc1cc(F)c(F)c([C@H]2Cc3c(CN4CCOCC4)[nH]c(=S)n3C2)c1F [Example 209, (R)-1-(morpholinomethyl)-6-(2,3,5,6-tetrafluorophenyl)-6,7-dihydro-2H-pyrrolo[1,2-c]imidazole-3(5H)-thione Hydrochloride], the “Plasma (0.01 μM), activity in % of control” value was 87.6 % of control and the “Plasma (0.1 μM), activity in % of control” value was 60.3 % of control.

In the case of O=S1(=O)CCC(NCCc2[nH]c(=S)n3c2C[C@H](c2c(F)ccc(Br)c2F)C3)CC1 [Example 178, (R)-6-(3-bromo-2,6-difluorophenyl)-1-(2-((1,1-dioxidotetrahydro-2H-thiopyran-4-yl)amino)ethyl)-2,5,6,7-tetrahydro-3H-pyrrolo[1,2-c]imidazole-3-thione], the “Plasma (0.01 μM), activity in % of control” value is reported as 88.2 % of control and the “Plasma (0.1 μM), activity in % of control” value is reported as 29.5 % of control.

O=C(O)Cc1[nH]c(=S)n2c1C[C@H](c1cc(Cl)ccc1F)C2 [Example 17, (R)-2-(6-(5-chloro-2-fluorophenyl)-3-thioxo-2,5,6,7-tetrahydro-3H-pyrrolo[1,2-c]imidazol-1-yl)acetic Acid] was tested, and the “Plasma (0.1 μM), activity in % of control” value was 79.0 % of control and the “Plasma (1 μM), activity in % of control” value was 32.2 % of control.

With Cl.Cn1c(CC(=O)N2CCNCC2)c2n(c1=S)C[C@@]1(c3cc(Br)ccc3F)C[C@@H]21 [Example 321, 2-((5aS,6aR)-5a-(5-bromo-2-fluorophenyl)-2-methyl-3-thioxo-2,3,5,5a,6,6a-hexahydrocyclopropa[3,4]pyrrolo[1,2-c]imidazol-1-yl)-1-(piperazin-1-yl)ethan-1-one Hydrochloride] the “Plasma (0.01 μM), activity in % of control” value was 89.7 % of control and the “Plasma (0.1 μM), activity in % of control” value was 13.3 % of control.

In the case of Cn1c(CC(=O)Nc2ncco2)c2n(c1=S)C[C@H](c1c(F)ccc(Cl)c1F)C2 [Example 317, (S)-2-(6-(3-chloro-2,6-difluorophenyl)-2-methyl-3-thioxo-2,5,6,7-tetrahydro-3H-pyrrolo[1,2-c]imidazol-1-yl)-N-(oxazol-2-yl)acetamide], the “Plasma (0.01 μM), activity in % of control” value is reported as 45.6 % of control and the “Plasma (0.1 μM), activity in % of control” value is reported as 5.3 % of control.

With O=C(Cc1[nH]c(=S)n2c1C[C@H](c1c(F)cccc1F)C2)N[C@@H]1CCOC1 [Example 77, 2-((R)-6-(2,6-difluorophenyl)-3-thioxo-2,5,6,7-tetrahydro-3H-pyrrolo[1,2-c]imidazol-1-yl)-N—((R)-tetrahydrofuran-3-yl)acetamide] the “Plasma (0.1 μM), activity in % of control” value was 87.2 % of control and the “Plasma (1 μM), activity in % of control” value was 38.9 % of control.

Cn1c(CC(=O)N2CCC[C@H]2CO)c2n(c1=S)C[C@H](c1c(F)ccc(Br)c1F)C2 [Example 241, 2-((S)-6-(3-bromo-2,6-difluorophenyl)-2-methyl-3-thioxo-2,5,6,7-tetrahydro-3H-pyrrolo[1,2-c]imidazol-1-yl)-1-((S)-2-(hydroxymethyl)pyrrolidin-1-yl)ethan-1-one] was tested, and the “Plasma (0.01 μM), activity in % of control” value was 51.7 % of control and the “Plasma (0.1 μM), activity in % of control” value was 8.9 % of control.

With O=C(O)Cc1[nH]c(=S)n2c1C[C@H](c1c(F)c(F)cc(F)c1F)C2 [Example 15, (R)-2-(6-(2,3,5,6-tetrafluorophenyl)-3-thioxo-2,5,6,7-tetrahydro-3H-pyrrolo[1,2-c]imidazol-1-yl)acetic Acid] the “Plasma (0.1 μM), activity in % of control” value was 66.0 % of control and the “Plasma (1 μM), activity in % of control” value was 11.4 % of control.

In the case of CN(C(=O)Cc1[nH]c(=S)n2c1C[C@H](c1c(F)ccc(F)c1F)C2)C1COC1 [Example 420, (R)—N-methyl-N-(oxetan-3-yl)-2-(3-thioxo-6-(2,3,6-trifluorophenyl)-2,5,6,7-tetrahydro-3H-pyrrolo[1,2-c]imidazol-1-yl)acetamide], the “Plasma (0.01 μM), activity in % of control” value is reported as 87.8 % of control and the “Plasma (0.1 μM), activity in % of control” value is reported as 48.5 % of control.

In the case of O=C(Cc1[nH]c(=S)n2c1C[C@@H](c1c(F)ccc(Cl)c1F)C2)N1CCCC1 [Example 110, (S)-2-(6-(3-chloro-2,6-difluorophenyl)-3-thioxo-2,5,6,7-tetrahydro-3H-pyrrolo[1,2-c]imidazol-1-yl)-1-(pyrrolidin-1-yl)ethan-1-one], the “Plasma (0.1 μM), activity in % of control” value is reported as 52.4 % of control and the “Plasma (1 μM), activity in % of control” value is reported as 9.7 % of control.

In the case of CCOC(=O)Cc1[nH]c(=S)n2c1C[C@H](c1cc(Cl)ccc1F)C2 [Example 64, Ethyl (R)-2-(6-(5-chloro-2-fluorophenyl)-3-thioxo-2,5,6,7-tetrahydro-3H-pyrrolo[1,2-c]imidazol-1-yl)acetate], the “Plasma (0.1 μM), activity in % of control” value is reported as 88.4 % of control and the “Plasma (1 μM), activity in % of control” value is reported as 47.2 % of control.

With O=C(Cc1[nH]c(=S)n2c1C[C@@H](c1c(F)ccc(Br)c1F)C2)N[C@@H]1CCCOC1 [Example 402, 2-((S)-6-(3-bromo-2,6-difluorophenyl)-3-thioxo-2,5,6,7-tetrahydro-3H-pyrrolo[1,2-c]imidazol-1-yl)-N—((R)-tetrahydro-2H-pyran-3-yl)acetamide] the “Plasma (0.01 μM), activity in % of control” value was 59.6 % of control and the “Plasma (0.1 μM), activity in % of control” value was 20.9 % of control.
